According to patent US20050239656A1, “Pyridine compounds or salts thereof and herbicides containing the same” (priority 2002, published 2005):

Each molecule was assayed on velvetleaf (assay: Test Example 2: soil surface treatment, upland pot test). Conditions: active ingredient 500 g/ha, observed 20th to 28th day.
Format: in vivo, Abutilon theophrasti MEDIC.
Outline: (§1)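 Pre-emergence: the soil surface was sprayed 1 day after sowing with wettable powder or emulsifiable concentrate diluted in water at 1,500 L/ha, at a predetermined active ingredient amount. Growth control was scored visually 20–28 days after treatment, 0 (untreated) to 100 (complete kill).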

Compound | Growth controlling degree (%) Velvetleaf [%]
CC(C)C(c1cnccc1C(F)(F)F)N(C)C(=O)Cc1ccc(Br)c(F)c1 (racemic) [Compound I-129] | 10
CC(C)C(c1cnccc1C(F)(F)F)N(C)S(=O)(=O)C=Cc1ccccc1 (racemic) [I-135] | 30
CC(C)C(c1cnccc1C(F)(F)F)N(C)C(=O)Cc1cccc(F)c1 (stereo not drawn) [Compound I-20] | 100

These molecules were tested on barnyardgrass in the same assay as above. Conditions: active ingredient 500 g/ha, observed 20th to 28th day.
Format: in vivo, Echinochloa crus-galli L.
Outline: as §1

Compound | Growth controlling degree (%) Barnyardgrass [%]
CC(C)C(c1cnccc1C(F)(F)F)N(C)C(=O)Cc1ccc(Br)c(F)c1 (racemic) [Compound I-129] | 98
CC(C)C(c1cnccc1C(F)(F)F)N(C)S(=O)(=O)C=Cc1ccccc1 (racemic) [I-135] | 80
CC(C)C(c1cnccc1C(F)(F)F)N(C)C(=O)Cc1cccc(F)c1 (stereo not drawn) [Compound I-20] | 100

The molecules below were run on rice (var. Nihonbare) (assay: Test Example 3: paddy pot test, transplanted rice). Conditions: active ingredient 250 g/ha, applied 4th day after transplantation, visually observed 21st day after application, 0 = non-treated, 100 = complete kill.
Format: in vivo, Oryza sativa L.
Outline: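 Visual crop-injury rating (0 = as untreated, 100 = complete kill, %) taken 21 days post-application. Treatment: formulated compound, water-diluted, pipetted into 3–4 cm flood water at a preset active-ingredient dose, 4 days after transplanting 2-leaf Nihonbare rice 3 cm deep in puddled paddy soil.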

Compound | Growth controlling degree (%) Rice [%]
CC(C)C(c1cnccc1C(F)(F)F)N(C)C(=O)Cc1ccc(Br)c(F)c1 (racemic) [Compound I-129] | 0

Same assay, conditions: active ingredient 500 g/ha, applied 4th day after transplantation, visually observed 21st day after application, 0 = non-treated, 100 = complete kill

Compound | Growth controlling degree (%) Rice [%]
CC(C)C(c1cnccc1C(F)(F)F)N(C)S(=O)(=O)C=Cc1ccccc1 (racemic) [I-135] | 10
CC(C)C(c1cnccc1C(F)(F)F)N(C)C(=O)Cc1cccc(F)c1 (stereo not drawn) [Compound I-20] | 40

These molecules were tested on japanese bulrush (assay: Test Example 3: paddy pot test, application under submerged conditions). Conditions: active ingredient 250 g/ha; submerged application at 0.5 leaf stage; visually observed 14 days after application; 0 = non-treated, 100 = complete kill.
Format: in vivo, Scirpus juncoides
Outline: (§2)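 Paddy soil pots; seeds sown, lightly covered; flooded 0.5–1 cm in greenhouse; wapato tubers planted day 1–2; flood raised to 3–4 cm. Submerged pipette application at 0.5 leaf / primary leaf stage. Visual score day 14, 0–100%.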

Compound | Growth controlling degree (%) Japanese bulrush [%]
CC(C)C(c1cnccc1C(F)(F)F)N(C)C(=O)Cc1ccc(Br)c(F)c1 (racemic) [Compound I-129] | 90

Same assay, conditions: active ingredient 500 g/ha; submerged application at 0.5 leaf stage; visually observed 14 days after application; 0 = non-treated, 100 = complete kill

Compound | Growth controlling degree (%) Japanese bulrush [%]
CC(C)C(c1cnccc1C(F)(F)F)N(C)S(=O)(=O)C=Cc1ccccc1 (racemic) [I-135] | 100
CC(C)C(c1cnccc1C(F)(F)F)N(C)C(=O)Cc1cccc(F)c1 (stereo not drawn) [Compound I-20] | 90

The molecules below were run on japanese ribbon wapato in the same assay as above. Conditions: active ingredient 500 g/ha; submerged application at primary leaf stage; visually observed 14 days after application; 0 = non-treated, 100 = complete kill.
Format: in vivo, Sagittaria pygniaea
Outline: as §2

Compound | Growth controlling degree (%) Japanese ribbon wapato [%]
CC(C)C(c1cnccc1C(F)(F)F)N(C)C(=O)Cc1cccc(F)c1 (stereo not drawn) [Compound I-20] | 90

Each molecule was assayed on redroot pigweed (assay: Test Example 2: soil surface treatment, upland pot test). Conditions: active ingredient 500 g/ha, observed 20th to 28th day.
Format: in vivo, Amaranthus retroflexus L.
Outline: as §1

Compound | Growth controlling degree (%) Redroot pigweed [%]
CC(C)C(c1cnccc1C(F)(F)F)N(C)C(=O)Cc1ccc(Br)c(F)c1 (racemic) [Compound I-129] | 40
CC(C)C(c1cnccc1C(F)(F)F)N(C)S(=O)(=O)C=Cc1ccccc1 (racemic) [I-135] | 20
CC(C)C(c1cnccc1C(F)(F)F)N(C)C(=O)Cc1cccc(F)c1 (stereo not drawn) [Compound I-20] | 95

Each molecule was assayed on wheat in the same assay as above. Conditions: active ingredient 500 g/ha, observed 20th to 28th day.
Format: in vivo, Triticum spp.
From the text: Upland field soil was put into a 1/170,000 ha pot, and seed of various plants (barnyardgrass, crabgrass, green foxtail, redroot pigweed, prickly sida, velvetleaf, rice, wheat, corn, soybean) were sown. On the 1st day after the sowing, a wettable powder or emulsifiable concentrate having the compound of the present invention formulated in accordance with a usual formulation method, was weighed so that the active ingredient would be a predetermined amount, and diluted with water in an amount of 1,500 L/ha. The herbicide thus adjusted was applied by a small size sprayer for soil surface treatment. On the 20th to 28th days after the application of the herbicide, the growth of the respective plants was visually observed, and the herbicidal effects were evaluated by the growth controlling degrees (%) ranging from 0 (equivalent to the non-treated plot) to 100 (complete kill), whereby the results shown in Table 4, were obtained.

Compound | Growth controlling degree (%) wheat [%]
CC(C)C(c1cnccc1C(F)(F)F)N(C)C(=O)Cc1ccc(Br)c(F)c1 (racemic) [Compound I-129] | 30
CC(C)C(c1cnccc1C(F)(F)F)N(C)S(=O)(=O)C=Cc1ccccc1 (racemic) [I-135] | 10
CC(C)C(c1cnccc1C(F)(F)F)N(C)C(=O)Cc1cccc(F)c1 (stereo not drawn) [Compound I-20] | 40

Each molecule was assayed on rice in the same assay as above. Conditions: active ingredient 500 g/ha, observed 20th to 28th day.
Format: in vivo, Oryza sativa L.
Outline: as §1

Compound | Growth controlling degree (%) Rice [%]
CC(C)C(c1cnccc1C(F)(F)F)N(C)C(=O)Cc1ccc(Br)c(F)c1 (racemic) [Compound I-129] | 30
CC(C)C(c1cnccc1C(F)(F)F)N(C)S(=O)(=O)C=Cc1ccccc1 (racemic) [I-135] | 20
CC(C)C(c1cnccc1C(F)(F)F)N(C)C(=O)Cc1cccc(F)c1 (stereo not drawn) [Compound I-20] | 0

What follows are molecules tested on prickly sida in the same assay as above. Conditions: active ingredient 500 g/ha, observed 20th to 28th day.
Format: in vivo, Sida spinosa L.
Outline: as §1

Compound | Growth controlling degree (%) Prickly sida [%]
CC(C)C(c1cnccc1C(F)(F)F)N(C)C(=O)Cc1ccc(Br)c(F)c1 (racemic) [Compound I-129] | 70
CC(C)C(c1cnccc1C(F)(F)F)N(C)S(=O)(=O)C=Cc1ccccc1 (racemic) [I-135] | 50
CC(C)C(c1cnccc1C(F)(F)F)N(C)C(=O)Cc1cccc(F)c1 (stereo not drawn) [Compound I-20] | 100

Each molecule was assayed on crabgrass in the same assay as above. Conditions: active ingredient 500 g/ha, observed 20th to 28th day.
Format: in vivo, Digitaria sanguinalis L.
Outline: as §1

Compound | Growth controlling degree (%) Crabgrass [%]
CC(C)C(c1cnccc1C(F)(F)F)N(C)C(=O)Cc1ccc(Br)c(F)c1 (racemic) [Compound I-129] | 98
CC(C)C(c1cnccc1C(F)(F)F)N(C)S(=O)(=O)C=Cc1ccccc1 (racemic) [I-135] | 70
CC(C)C(c1cnccc1C(F)(F)F)N(C)C(=O)Cc1cccc(F)c1 (stereo not drawn) [Compound I-20] | 100

What follows are molecules tested on green foxtail in the same assay as above. Conditions: active ingredient 500 g/ha, observed 20th to 28th day.
Format: in vivo, Setaria viridis L.
Outline: as §1

Compound | Growth controlling degree (%) Green foxtail [%]
CC(C)C(c1cnccc1C(F)(F)F)N(C)C(=O)Cc1ccc(Br)c(F)c1 (racemic) [Compound I-129] | 100
CC(C)C(c1cnccc1C(F)(F)F)N(C)S(=O)(=O)C=Cc1ccccc1 (racemic) [I-135] | 70
CC(C)C(c1cnccc1C(F)(F)F)N(C)C(=O)Cc1cccc(F)c1 (stereo not drawn) [Compound I-20] | 100

These molecules were tested on corn in the same assay as above. Conditions: active ingredient 500 g/ha, observed 20th to 28th day.
Format: in vivo, Zea mays L.
Outline: as §1

Compound | Growth controlling degree (%) Corn [%]
CC(C)C(c1cnccc1C(F)(F)F)N(C)C(=O)Cc1ccc(Br)c(F)c1 (racemic) [Compound I-129] | 30
CC(C)C(c1cnccc1C(F)(F)F)N(C)S(=O)(=O)C=Cc1ccccc1 (racemic) [I-135] | 0
CC(C)C(c1cnccc1C(F)(F)F)N(C)C(=O)Cc1cccc(F)c1 (stereo not drawn) [Compound I-20] | 70

The molecules below were run on barnyardgrass (assay: Test Example 3: paddy pot test, application under submerged conditions). Conditions: active ingredient 250 g/ha; submerged application at 0.5 leaf stage; visually observed 14 days after application; 0 = non-treated, 100 = complete kill.
Format: in vivo, Echinochloa crus-galli L.
Outline: as §2

Compound | Growth controlling degree (%) Barnyardgrass [%]
CC(C)C(c1cnccc1C(F)(F)F)N(C)C(=O)Cc1ccc(Br)c(F)c1 (racemic) [Compound I-129] | 100

Same assay, conditions: active ingredient 500 g/ha; submerged application at 0.5 leaf stage; visually observed 14 days after application; 0 = non-treated, 100 = complete kill

Compound | Growth controlling degree (%) Barnyardgrass [%]
CC(C)C(c1cnccc1C(F)(F)F)N(C)S(=O)(=O)C=Cc1ccccc1 (racemic) [I-135] | 98

What follows are molecules tested on soybean (assay: Test Example 2: soil surface treatment, upland pot test). Conditions: active ingredient 500 g/ha, observed 20th to 28th day.
Format: in vivo, Glycine max Merr.
Outline: as §1

Compound | Growth controlling degree (%) Soyabean [%]
CC(C)C(c1cnccc1C(F)(F)F)N(C)C(=O)Cc1ccc(Br)c(F)c1 (racemic) [Compound I-129] | 10
CC(C)C(c1cnccc1C(F)(F)F)N(C)S(=O)(=O)C=Cc1ccccc1 (racemic) [I-135] | 0
CC(C)C(c1cnccc1C(F)(F)F)N(C)C(=O)Cc1cccc(F)c1 (stereo not drawn) [Compound I-20] | 30
